Assay results from patent publication US11959086B2, “Dual transit peptides for targeting polypeptides” (BASF AGRO B.V., priority 2016, dated 2024).

What was measured:
[1] = system: Wildtype/non-transgenic Arabidopsis thaliana; experiment: Herbicide injury evaluation of Arabidopsis plants, greenhouse; assay type: in vivo; details: scale 0-100
[2] = system: Arabidopsis plants, construct RHOMA_PPO_wt_tpFNR (SEQ ID NO 123); experiment: Tolerance of transgenic T1 Arabidopsis plants to herbicides, greenhouse (Tolerance Factor); assay type: in vivo, Arabidopsis thaliana
[3] = system: transgenic Arabidopsis thaliana, transgene SEQ ID NO 119; experiment: Herbicide injury evaluation of Arabidopsis plants, greenhouse; assay type: in vivo; details: Table 3, scale 0-100
[4] = system: transgenic Arabidopsis thaliana, transgene SEQ ID NO 121; experiment: as above; assay type: in vivo; details: Table 3, scale 0-100
[5] = system: transgenic Arabidopsis thaliana, transgene SEQ ID NO 118; experiment: as above; assay type: in vivo; details: scale 0-100
[6] = system: Arabidopsis plants, construct OPITE_PPO_wt_tpFNR (SEQ ID NO 121); experiment: Tolerance of transgenic T1 Arabidopsis plants to herbicides, greenhouse (Tolerance Factor); assay type: in vivo, Arabidopsis thaliana
[7] = system: Arabidopsis plants, construct CHLSP_PPO_wt_tpFNR (SEQ ID NO 128); experiment: as above; assay type: in vivo, Arabidopsis thaliana
[8] = system: Arabidopsis plants, construct hemF_tplAMATU_PPO2 (SEQ ID NO 115); experiment: as above; assay type: in vivo, Arabidopsis thaliana
[9] = system: Arabidopsis plants, construct hemF_tpsAMATU_PPO2 (SEQ ID NO 116); experiment: as above; assay type: in vivo, Arabidopsis thaliana
[10] = system: empty vector-transformed leaf discs; experiment: PSII yield inhibition in tobacco leaf discs (chlorophyll fluorescence, imaging PAM); assay type: cell-based; details: Nicotiana benthamiana, 48 h, read-out: IC50 of PSII yield inhibition
[11] = system: Arabidopsis plants, construct hemF_tpFNR (SEQ ID NO 114); experiment: Tolerance of transgenic T1 Arabidopsis plants to herbicides, greenhouse (Tolerance Factor); assay type: in vivo, Arabidopsis thaliana
[12] = system: transgenic Arabidopsis thaliana, transgene SEQ ID NO 128; experiment: Herbicide injury evaluation of Arabidopsis plants, greenhouse; assay type: in vivo; details: Table 3, scale 0-100
[13] = system: Arabidopsis plants, construct RHOMA_PPO_F420V_tpFNR (SEQ ID NO 124); experiment: Tolerance of transgenic T1 Arabidopsis plants to herbicides, greenhouse (Tolerance Factor); assay type: in vivo, Arabidopsis thaliana
[14] = system: transgenic Arabidopsis thaliana, transgene SEQ ID NO 117; experiment: Herbicide injury evaluation of Arabidopsis plants, greenhouse; assay type: in vivo; details: Table 3, scale 0-100
[15] = system: transgenic Arabidopsis thaliana, transgene SEQ ID NO 120; experiment: as above; assay type: in vivo; details: Table 4, scale 0-100
[16] = system: Arabidopsis plants, construct hemG_tplAMATU_PPO2 (SEQ ID NO 118); experiment: Tolerance of transgenic T1 Arabidopsis plants to herbicides, greenhouse (Tolerance Factor); assay type: in vivo, Arabidopsis thaliana
[17] = system: Arabidopsis plants, construct hemG_tpFNR (SEQ ID NO 117); experiment: as above; assay type: in vivo, Arabidopsis thaliana
[18] = system: Arabidopsis plants, construct RHOMA_PPO_wt_tpAMATU_PPO2 (SEQ ID NO 127); experiment: as above; assay type: in vivo, Arabidopsis thaliana
[19] = system: Arabidopsis plants, construct hemG_tpsAMATU_PPO2 (SEQ ID NO 119); experiment: as above; assay type: in vivo, Arabidopsis thaliana

CC(C)N(C)S(=O)(=O)NC(=O)c1cc(-n2c(=O)cc(C(F)(F)F)n(C)c2=O)c(F)cc1Cl [Saflufenacil, saflufenacil]
Herbicide injury evaluation 14 days after herbicide treatment ([1]; Table 3, 50 g ai/ha + 1% MSO): 100
Herbicide injury evaluation 14 days after herbicide treatment ([1]; Table 3, 150 g ai/ha + 1% MSO): 100
Herbicide injury evaluation 14 days after herbicide treatment ([1]; Table 3, 300 g ai/ha + 1% MSO): 100
Herbicide injury evaluation 14 days after herbicide treatment ([1]; Table 4, 50 g ai/ha + 1% MSO): 100
Herbicide injury evaluation 14 days after herbicide treatment ([1]; Table 4, 150 g ai/ha + 1% MSO): 100
Herbicide injury evaluation 14 days after herbicide treatment ([1]; Table 4, 300 g ai/ha + 1% MSO): 100
Tolerance Factor [2]: 1
Herbicide injury evaluation 14 days after herbicide treatment ([3]; SEQ ID NO 119 A, 50 g ai/ha + 1% MSO): 100
Herbicide injury evaluation 14 days after herbicide treatment ([3]; SEQ ID NO 119 A, 150 g ai/ha + 1% MSO): 100
Herbicide injury evaluation 14 days after herbicide treatment ([3]; SEQ ID NO 119 A, 300 g ai/ha + 1% MSO): 100
Herbicide injury evaluation 14 days after herbicide treatment ([3]; SEQ ID NO 119 B, 50 g ai/ha + 1% MSO): 100
Herbicide injury evaluation 14 days after herbicide treatment ([3]; SEQ ID NO 119 B, 150 g ai/ha + 1% MSO): 100
Herbicide injury evaluation 14 days after herbicide treatment ([3]; SEQ ID NO 119 B, 300 g ai/ha + 1% MSO): 100
Herbicide injury evaluation 14 days after herbicide treatment ([4]; SEQ ID NO 121 G, 50 g ai/ha + 1% MSO): 100
Herbicide injury evaluation 14 days after herbicide treatment ([4]; SEQ ID NO 121 G, 150 g ai/ha + 1% MSO): 100
Herbicide injury evaluation 14 days after herbicide treatment ([4]; SEQ ID NO 121 G, 300 g ai/ha + 1% MSO): 100
Herbicide injury evaluation 14 days after herbicide treatment ([4]; SEQ ID NO 121 H, 50 g ai/ha + 1% MSO): 100
Herbicide injury evaluation 14 days after herbicide treatment ([4]; SEQ ID NO 121 H, 150 g ai/ha + 1% MSO): 100
Herbicide injury evaluation 14 days after herbicide treatment ([4]; SEQ ID NO 121 H, 300 g ai/ha + 1% MSO): 100
Herbicide injury evaluation 14 days after herbicide treatment ([5]; Table 3, SEQ ID NO 118 Q, 50 g ai/ha + 1% MSO): 55
Herbicide injury evaluation 14 days after herbicide treatment ([5]; Table 3, SEQ ID NO 118 Q, 150 g ai/ha + 1% MSO): 58
Herbicide injury evaluation 14 days after herbicide treatment ([5]; Table 3, SEQ ID NO 118 Q, 300 g ai/ha + 1% MSO): 68
Herbicide injury evaluation 14 days after herbicide treatment ([5]; Table 3, SEQ ID NO 118 R, 50 g ai/ha + 1% MSO): 5
Herbicide injury evaluation 14 days after herbicide treatment ([5]; Table 3, SEQ ID NO 118 R, 150 g ai/ha + 1% MSO): 65
Herbicide injury evaluation 14 days after herbicide treatment ([5]; Table 3, SEQ ID NO 118 R, 300 g ai/ha + 1% MSO): 48
Herbicide injury evaluation 14 days after herbicide treatment ([5]; Table 4, SEQ ID NO 118 Q, 50 g ai/ha + 1% MSO): 63
Herbicide injury evaluation 14 days after herbicide treatment ([5]; Table 4, SEQ ID NO 118 Q, 150 g ai/ha + 1% MSO): 63
Herbicide injury evaluation 14 days after herbicide treatment ([5]; Table 4, SEQ ID NO 118 Q, 300 g ai/ha + 1% MSO): 65
Herbicide injury evaluation 14 days after herbicide treatment ([5]; Table 4, SEQ ID NO 118 R, 50 g ai/ha + 1% MSO): 38
Herbicide injury evaluation 14 days after herbicide treatment ([5]; Table 4, SEQ ID NO 118 R, 150 g ai/ha + 1% MSO): 45
Herbicide injury evaluation 14 days after herbicide treatment ([5]; Table 4, SEQ ID NO 118 R, 300 g ai/ha + 1% MSO): 60
Tolerance Factor [6]: 14
Tolerance Factor [7]: 640
Tolerance Factor [8]: 1
Tolerance Factor [9]: 1
IC50 [10]: 110 nM
Tolerance Factor [11]: 1
Herbicide injury evaluation 14 days after herbicide treatment ([12]; SEQ ID NO 128 D, 50 g ai/ha + 1% MSO): 93
Herbicide injury evaluation 14 days after herbicide treatment ([12]; SEQ ID NO 128 D, 150 g ai/ha + 1% MSO): 97
Herbicide injury evaluation 14 days after herbicide treatment ([12]; SEQ ID NO 128 D, 300 g ai/ha + 1% MSO): 97
Herbicide injury evaluation 14 days after herbicide treatment ([12]; SEQ ID NO 128 E, 50 g ai/ha + 1% MSO): 97
Herbicide injury evaluation 14 days after herbicide treatment ([12]; SEQ ID NO 128 E, 150 g ai/ha + 1% MSO): 97
Herbicide injury evaluation 14 days after herbicide treatment ([12]; SEQ ID NO 128 E, 300 g ai/ha + 1% MSO): 97
Tolerance Factor [13]: 1
Herbicide injury evaluation 14 days after herbicide treatment ([14]; SEQ ID NO 117 C, 50 g ai/ha + 1% MSO): 100
Herbicide injury evaluation 14 days after herbicide treatment ([14]; SEQ ID NO 117 C, 150 g ai/ha + 1% MSO): 98
Herbicide injury evaluation 14 days after herbicide treatment ([14]; SEQ ID NO 117 C, 300 g ai/ha + 1% MSO): 97
Herbicide injury evaluation 14 days after herbicide treatment ([14]; SEQ ID NO 117 I, 50 g ai/ha + 1% MSO): 94
Herbicide injury evaluation 14 days after herbicide treatment ([14]; SEQ ID NO 117 I, 150 g ai/ha + 1% MSO): 99
Herbicide injury evaluation 14 days after herbicide treatment ([14]; SEQ ID NO 117 I, 300 g ai/ha + 1% MSO): 95
Herbicide injury evaluation 14 days after herbicide treatment ([15]; SEQ ID NO 120 J, 50 g ai/ha + 1% MSO): 80
Herbicide injury evaluation 14 days after herbicide treatment ([15]; SEQ ID NO 120 J, 150 g ai/ha + 1% MSO): 83
Herbicide injury evaluation 14 days after herbicide treatment ([15]; SEQ ID NO 120 J, 300 g ai/ha + 1% MSO): 85
Herbicide injury evaluation 14 days after herbicide treatment ([15]; SEQ ID NO 120 M, 50 g ai/ha + 1% MSO): 95
Herbicide injury evaluation 14 days after herbicide treatment ([15]; SEQ ID NO 120 M, 150 g ai/ha + 1% MSO): 93
Herbicide injury evaluation 14 days after herbicide treatment ([15]; SEQ ID NO 120 M, 300 g ai/ha + 1% MSO): 88
Tolerance Factor [16]: 2200
Tolerance Factor [17]: 332
Tolerance Factor [18]: 1
Tolerance Factor [19]: 1
